This is an account of results in patent US20210238192A1, “VASCULAR ADHESION PROTEIN-1 (VAP-1) MODULATORS AND THERAPEUTIC USES THEREOF” (Blade Therapeutics, Inc., priority 2018, published 2021).

Counter-ions that a name gives are not always drawn. Like-named read-outs stand apart in the source and are kept apart here.

Common to all, as to assay type: biochemical
Experiment [1] concerns the target T1, Human VAP-1 (Homo sapiens, UniProt Q16853).
T1 sequence (Q16853 1-763): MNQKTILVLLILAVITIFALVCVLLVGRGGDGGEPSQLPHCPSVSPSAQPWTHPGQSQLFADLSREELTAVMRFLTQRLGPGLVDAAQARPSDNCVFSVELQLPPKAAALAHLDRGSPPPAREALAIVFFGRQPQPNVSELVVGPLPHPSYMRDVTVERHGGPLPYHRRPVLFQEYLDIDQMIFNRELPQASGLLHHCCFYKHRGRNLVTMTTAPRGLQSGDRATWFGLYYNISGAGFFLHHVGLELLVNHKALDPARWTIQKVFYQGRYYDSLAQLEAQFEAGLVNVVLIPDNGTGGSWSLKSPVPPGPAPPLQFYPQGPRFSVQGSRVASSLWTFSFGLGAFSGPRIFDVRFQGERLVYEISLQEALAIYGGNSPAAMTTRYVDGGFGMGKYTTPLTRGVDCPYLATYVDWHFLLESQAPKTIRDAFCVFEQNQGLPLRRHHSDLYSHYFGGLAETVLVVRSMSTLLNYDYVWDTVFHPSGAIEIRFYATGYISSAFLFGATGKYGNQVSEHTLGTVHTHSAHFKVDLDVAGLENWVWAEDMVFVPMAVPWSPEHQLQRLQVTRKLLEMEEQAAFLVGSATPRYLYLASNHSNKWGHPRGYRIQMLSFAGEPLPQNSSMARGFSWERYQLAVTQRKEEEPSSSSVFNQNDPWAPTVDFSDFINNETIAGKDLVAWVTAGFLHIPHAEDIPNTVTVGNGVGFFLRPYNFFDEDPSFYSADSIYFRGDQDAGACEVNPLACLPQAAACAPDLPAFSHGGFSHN
The experiment is described as follows: VAP-1 inhibition assay (Amplex Red continuous fluorescence assay). In short, it runs like this: (§1)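 Continuous Amplex Red/HRP fluorescence read of H2O2 (ex/em 510/565 nm, 5 min). Substrates and buffers: VAP-1 benzylamine, […] sodium phosphate pH 7.4, 30 min 37° C preincubation; MAO-A tyramine and MAO-B benzylamine, same buffer, room temp; DAO histamine, 50 mM HEPES pH 7.5, room temp. IC50 from 4-parameter fit of rates.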

Experiment [2] addresses T2, Human DAO (Homo sapiens, UniProt P19801).
T2 sequence (P19801 20-751): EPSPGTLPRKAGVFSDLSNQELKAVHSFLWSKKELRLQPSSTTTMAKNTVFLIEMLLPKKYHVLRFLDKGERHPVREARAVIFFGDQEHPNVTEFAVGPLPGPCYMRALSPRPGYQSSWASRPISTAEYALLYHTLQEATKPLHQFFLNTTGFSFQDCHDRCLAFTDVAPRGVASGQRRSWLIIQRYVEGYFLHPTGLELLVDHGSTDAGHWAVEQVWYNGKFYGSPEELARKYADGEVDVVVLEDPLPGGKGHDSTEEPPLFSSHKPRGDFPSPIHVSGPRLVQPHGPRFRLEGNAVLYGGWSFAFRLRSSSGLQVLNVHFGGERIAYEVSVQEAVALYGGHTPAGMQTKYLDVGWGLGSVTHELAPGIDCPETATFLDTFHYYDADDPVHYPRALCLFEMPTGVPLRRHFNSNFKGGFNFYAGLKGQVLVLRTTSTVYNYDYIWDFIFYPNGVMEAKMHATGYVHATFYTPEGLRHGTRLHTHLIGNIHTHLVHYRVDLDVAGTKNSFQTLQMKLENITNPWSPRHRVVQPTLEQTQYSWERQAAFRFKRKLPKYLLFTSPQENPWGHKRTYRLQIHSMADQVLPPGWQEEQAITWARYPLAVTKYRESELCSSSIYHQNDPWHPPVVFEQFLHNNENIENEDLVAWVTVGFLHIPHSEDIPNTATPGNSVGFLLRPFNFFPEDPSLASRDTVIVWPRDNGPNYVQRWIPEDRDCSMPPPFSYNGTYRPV
The experiment can be described thus: DAO inhibition (Amplex Red continuous fluorescence assay). Summed up:
as §1

The target of experiment [3] is T3, Human MAO-B (Homo sapiens, UniProt P27338).
T3 sequence (P27338 1-520): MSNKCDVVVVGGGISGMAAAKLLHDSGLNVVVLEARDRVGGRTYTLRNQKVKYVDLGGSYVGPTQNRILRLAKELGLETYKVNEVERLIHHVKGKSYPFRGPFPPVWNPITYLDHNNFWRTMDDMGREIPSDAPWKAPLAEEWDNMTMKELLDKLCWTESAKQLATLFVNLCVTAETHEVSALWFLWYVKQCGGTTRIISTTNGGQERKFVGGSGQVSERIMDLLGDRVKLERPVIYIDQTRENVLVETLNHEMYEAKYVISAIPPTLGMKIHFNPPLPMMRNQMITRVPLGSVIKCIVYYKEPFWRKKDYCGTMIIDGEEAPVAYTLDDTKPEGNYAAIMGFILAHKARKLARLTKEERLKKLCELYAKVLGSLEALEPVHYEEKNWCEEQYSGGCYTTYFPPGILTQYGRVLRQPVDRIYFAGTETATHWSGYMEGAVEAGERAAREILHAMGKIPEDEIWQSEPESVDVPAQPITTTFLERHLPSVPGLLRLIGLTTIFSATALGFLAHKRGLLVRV
The experiment is described as follows: MAO-B inhibition (Amplex Red continuous fluorescence assay). Summed up: as §1

In experiment [4] the target is T4, Human MAO-A (Homo sapiens, UniProt P21397).
T4 sequence (P21397 1-527): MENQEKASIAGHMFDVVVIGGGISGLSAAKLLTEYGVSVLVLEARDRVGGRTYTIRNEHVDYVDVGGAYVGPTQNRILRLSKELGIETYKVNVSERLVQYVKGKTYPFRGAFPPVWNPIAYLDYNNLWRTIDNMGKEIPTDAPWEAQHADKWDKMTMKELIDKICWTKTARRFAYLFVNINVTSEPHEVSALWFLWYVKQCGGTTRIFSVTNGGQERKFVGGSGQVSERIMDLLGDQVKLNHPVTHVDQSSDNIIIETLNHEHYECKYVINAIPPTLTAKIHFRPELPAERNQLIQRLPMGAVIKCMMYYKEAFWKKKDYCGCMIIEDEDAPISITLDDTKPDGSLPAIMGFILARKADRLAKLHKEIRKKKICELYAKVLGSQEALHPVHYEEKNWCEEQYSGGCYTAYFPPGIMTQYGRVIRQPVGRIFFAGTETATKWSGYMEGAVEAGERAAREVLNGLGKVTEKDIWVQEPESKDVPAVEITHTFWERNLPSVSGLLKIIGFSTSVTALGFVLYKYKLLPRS
The experiment is described as follows: MAO-A inhibition (Amplex Red continuous fluorescence assay). In short, it runs like this: as §1

Where [5] appears, read: 30 min pre-incubation at 37° C., substrate benzylamine, read-out: Human VAP-1 IC50.
The mark [6] stands for this setting: 30 min pre-incubation at room temp, substrate histamine, read-out: Human DAO IC50.
Setting [7] is: 30 min pre-incubation at room temp, substrate benzylamine, read-out: Human MAO-B IC50.
[8] abbreviates: 30 min pre-incubation at room temp, substrate tyramine, read-out: Human MAO-A IC50.

In general, IC50 refers to the midpoint of a concentration-inhibition curve. Consider `NC/C(=C\F)COc1ccc(-c2cocn2)cc1` [Compound 29, (E)-3-fluoro-2-((4-(oxazol-4-yl)phenoxy)methyl)prop-2-en-1-amine hydrochloride], for which the half-inhibitory concentration (IC50) in experiment [1] (setting [5]), in experiment [2] (setting [6]), in experiment [3] (setting [7]) and in experiment [4] (setting [8]) was less than 3 µM each time.

With `NC/C(=C/F)CNC(=O)Nc1ccccc1` [Compound 72], the half-maximal inhibitory concentration (IC50) in experiment [1] (setting [5]) was less than 3 µM; in experiment [2] (setting [6]), less than 3 µM; in experiment [3] (setting [7]), more than 10 µM; in experiment [4] (setting [8]) it was less than 3 µM.

`NC/C(=C\F)COc1ccc(-c2cnc[nH]2)cc1` [Compound 40, (E)-2-((4-(1H-imidazol-5-yl)phenoxy)methyl)-3-fluoroprop-2-en-1-amine]: the IC50 in experiment [1] (setting [5]) is less than 3 µM; in experiment [2] (setting [6]) it was less than 3 µM; in experiment [3] (setting [7]), less than 3 µM; in experiment [4] (setting [8]) it was 3 to 10 µM.

Regarding `NCC(=CF)COc1ccc(-c2cnn[nH]2)cc1` [Compound 60], the IC50 in experiment [1] (setting [5]), in experiment [2] (setting [6]), in experiment [3] (setting [7]) and in experiment [4] (setting [8]) was less than 3 µM throughout.

As to `NC/C(=C/F)COc1ccc(-c2nnn[nH]2)cc1` [Compound 52, (Z)-2-((4-(1H-tetrazol-5-yl)phenoxy)methyl)-3-fluoroprop-2-en-1-amine hydrochloride], the IC50 in experiment [1] (setting [5]) was less than 3 µM; in experiment [2] (setting [6]), less than 3 µM; in experiment [3] (setting [7]), more than 10 µM; in experiment [4] (setting [8]), more than 10 µM.

As for `NC/C(=C/F)COc1ccc(-c2ncc[nH]2)cc1` [Compound 63, (Z)-2-((4-(1H-imidazol-2-yl)phenoxy)methyl)-3-fluoroprop-2-en-1-amine], the IC50 in experiment [1] (setting [5]) was less than 3 µM; in experiment [2] (setting [6]), less than 3 µM; in experiment [3] (setting [7]), more than 10 µM; in experiment [4] (setting [8]), more than 10 µM.

As for `NC/C(=C/F)COc1cccc2c1OCO2` [Compound 16, (Z)-2-((benzo[d][1,3]dioxol-4-yloxy)methyl)-3-fluoroprop-2-en-1-amine hydrochloride], the IC50 in experiment [1] (setting [5]), in experiment [2] (setting [6]), in experiment [3] (setting [7]) and in experiment [4] (setting [8]) was less than 3 µM in each case.

On to `NC/C(=C\F)COc1ccc(C(=O)NCCOCCOCCOCCOCCOCCOCCOCCOCCOCCOCCOCCNC(=O)CCCCC2SCC3NC(=O)NC32)cc1` (stereo not shown) [Compound 78], for which the IC50 in experiment [1] (setting [5]) was less than 3 µM; in experiment [2] (setting [6]) it was less than 3 µM; in experiment [3] (setting [7]) it was more than 10 µM; in experiment [4] (setting [8]), more than 10 µM.

For the molecule `NC/C(=C\F)Cn1ncc(-c2ccc(O)cc2)n1` [Compound 57, (E)-4-(2-(2-(aminomethyl)-3-fluoroalkyl)-2H-1,2,3-triazol-4-yl)phenol hydrochloride], the half-inhibitory concentration (IC50) is less than 3 µM in experiment [1] (setting [5]), less than 3 µM in experiment [2] (setting [6]), 3 to 10 µM in experiment [3] (setting [7]) and less than 3 µM in experiment [4] (setting [8]).

Regarding `NC/C(=C\F)COc1ccc(-c2ccn[nH]2)cc1` [Compound 42, (E)-2-((4-(1H-pyrazol-5-yl)phenoxy)methyl)-3-fluoroprop-2-en-1-amine hydrochloride], the IC50 in experiment [1] (setting [5]), in experiment [2] (setting [6]), in experiment [3] (setting [7]) and in experiment [4] (setting [8]) was less than 3 µM in each case.

With `NC/C(=C\F)COc1cnc(N2CC[C@H](O)C2)nc1` [Compound 79], the IC50 in experiment [1] (setting [5]) is less than 3 µM; in experiment [2] (setting [6]), less than 3 µM; in experiment [3] (setting [7]), 3 to 10 µM; in experiment [4] (setting [8]), more than 10 µM.

As for `Cn1ccnc1-c1ccc(OC/C(=C\F)CN)cc1` [Compound 28, hydrochloride], the IC50 in experiment [1] (setting [5]) was less than 3 µM; in experiment [2] (setting [6]) it was less than 3 µM; in experiment [3] (setting [7]) it was less than 3 µM; in experiment [4] (setting [8]), more than 10 µM.

For `NC/C(=C\F)CNC(=O)Nc1ccccc1` [Compound 71], the IC50 in experiment [1] (setting [5]) was less than 3 µM; in experiment [2] (setting [6]), 3 to 10 µM; in experiment [3] (setting [7]), more than 10 µM; in experiment [4] (setting [8]), less than 3 µM.

`NC/C(=C\F)CNC(=O)Oc1ccccc1` [Compound 47, phenyl (E)-(2-(aminomethyl)-3-fluoroalkyl)carbamate hydrochloride]: the IC50 in experiment [1] is less than 3 µM; in experiment [2], more than 10 µM; in experiment [3], more than 10 µM; in experiment [4], less than 3 µM.

Take `NC/C(=C\F)COC(=O)Nc1ccccc1` [Compound 65, (E)-2-(aminomethyl)-3-fluoroalkyl phenylcarbamate]: the IC50 in experiment [1] (setting [5]) was less than 3 µM; in experiment [2] (setting [6]), less than 3 µM; in experiment [3] (setting [7]) it was 3 to 10 µM; in experiment [4] (setting [8]), 3 to 10 µM.

For `CCNC(=O)Oc1ccc(OC/C(=C\F)CN)cc1` [Compound 56, (Z)-4-((2-(aminomethyl)-3-fluoroalkyl)oxy)phenyl ethylcarbamate], the IC50 in experiment [1] (setting [5]), in experiment [2] (setting [6]), in experiment [3] (setting [7]) and in experiment [4] (setting [8]) was less than 3 µM each time.
